Reference: PMC10794144, “A novel antibiotic class targeting the lipopolysaccharide transporter” (Nature, 2024)
Like-named read-outs stand apart in the source and are kept apart here.

Tested on: A. baumannii
Assay: microbe, parasite or virus in culture
Details: Acinetobacter baumannii, 100%
How it was run: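 CLSI broth microdilution (M07/M100); inoculum from 0.5 McFarland suspension diluted in CAMHB; MIC = lowest concentration with no visible growth or where OD600 stops falling.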

Measured: MIC

C[C@@H](O)[C@H]1C(=O)N2C(C(=O)O)=C(S[C@@H]3CN[C@H](C(=O)N(C)C)C3)[C@H](C)[C@H]12 [meropenem, reference compound]
64 µg/mL: read-out: MIC 100%, ROB08704, Study ROC010 | read-out: MIC 100%, ROB08704, Study ROC013 | read-out: MIC 100%, ROB08705, Study LGC277937 | read-out: MIC 100%, ROB08705, Study LGC301026 | read-out: MIC 100%, ROB08705, Study ROC004 | read-out: MIC 100%, ROB08705, Study ROC005 | read-out: MIC 100%, ROB08705, Study ROC006 | read-out: MIC 100%, ROB08705, Study ROC010 | read-out: MIC 100%, ROB08706, Study LGC277937 | read-out: MIC 100%, ROB08706, Study LGC282160 | read-out: MIC 100%, ROB08706, Study LGC282623 | read-out: MIC 100%, ROB08706, Study LGC283932 | read-out: MIC 100%, ROB08706, Study LGC284879 | read-out: MIC 100%, ROB08706, Study LGC285582 | read-out: MIC 100%, ROB08706, Study LGC286210 | read-out: MIC 100%, ROB08706, Study LGC293598 | read-out: MIC 100%, ROB08706, Study LGC294355 | read-out: MIC 100%, ROB08706, Study LGC295147 | read-out: MIC 100%, ROB08706, Study LGC296813 | read-out: MIC 100%, ROB08706, Study LGC299544 | read-out: MIC 100%, ROB08706, Study LGC301026 | read-out: MIC 100%, ROB08706, Study LGC308175 | read-out: MIC 100%, ROB08706, Study ROC004 | read-out: MIC 100%, ROB08706, Study ROC005 | read-out: MIC 100%, ROB08706, Study ROC007 | read-out: MIC 100%, ROB08706, Study ROC008 | read-out: MIC 100%, ROB08706, Study ROC009 | read-out: MIC 100%, ROB08706, Study ROC012 | read-out: MIC 100%, ROB08706, Study ROC013 | read-out: MIC 100%, ROB08707, Study LGC282623 | read-out: MIC 100%, ROB08707, Study LGC283932 | read-out: MIC 100%, ROB08707, Study LGC284879 | read-out: MIC 100%, ROB08707, Study LGC295147 | read-out: MIC 100%, ROB08707, Study LGC299544 | read-out: MIC 100%, ROB08707, Study ROC006 | read-out: MIC 100%, ROB08707, Study ROC007
16 µg/mL: read-out: MIC 100%, ROB08705, Study LGC279800
32 µg/mL: read-out: MIC 100%, ROB08704, Study ROC012 | read-out: MIC 100%, ROB08705, Study LGC281440 | read-out: MIC 100%, ROB08705, Study LGC282160 | read-out: MIC 100%, ROB08705, Study LGC282623 | read-out: MIC 100%, ROB08705, Study LGC283932 | read-out: MIC 100%, ROB08705, Study LGC284200 | read-out: MIC 100%, ROB08705, Study LGC284879 | read-out: MIC 100%, ROB08705, Study LGC285582 | read-out: MIC 100%, ROB08705, Study LGC286210 | read-out: MIC 100%, ROB08705, Study LGC293598 | read-out: MIC 100%, ROB08705, Study LGC294355 | read-out: MIC 100%, ROB08705, Study LGC295147 | read-out: MIC 100%, ROB08705, Study LGC296813 | read-out: MIC 100%, ROB08705, Study LGC299544 | read-out: MIC 100%, ROB08705, Study LGC308175 | read-out: MIC 100%, ROB08705, Study ROC003 | read-out: MIC 100%, ROB08705, Study ROC007 | read-out: MIC 100%, ROB08705, Study ROC009 | read-out: MIC 100%, ROB08705, Study ROC012 | read-out: MIC 100%, ROB08705, Study ROC013 | read-out: MIC 100%, ROB08706, Study LGC281440 | read-out: MIC 100%, ROB08706, Study LGC284200 | read-out: MIC 100%, ROB08706, Study ROC010 | read-out: MIC 100%, ROB08707, Study LGC277937 | read-out: MIC 100%, ROB08707, Study LGC279800 | read-out: MIC 100%, ROB08707, Study LGC281440 | read-out: MIC 100%, ROB08707, Study LGC282160 | read-out: MIC 100%, ROB08707, Study LGC284200 | read-out: MIC 100%, ROB08707, Study LGC285582 | read-out: MIC 100%, ROB08707, Study LGC286210 | read-out: MIC 100%, ROB08707, Study LGC293598 | read-out: MIC 100%, ROB08707, Study LGC294355 | read-out: MIC 100%, ROB08707, Study LGC296813 | read-out: MIC 100%, ROB08707, Study LGC301026 | read-out: MIC 100%, ROB08707, Study LGC308175 | read-out: MIC 100%, ROB08707, Study ROC004 | read-out: MIC 100%, ROB08707, Study ROC005 | read-out: MIC 100%, ROB08707, Study ROC008 | read-out: MIC 100%, ROB08707, Study ROC009 | read-out: MIC 100%, ROB08707, Study ROC010
> 64 µg/mL: read-out: MIC 100%, ROB08705, Study ROC008 | read-out: MIC 100%, ROB08706, Study LGC279800 | read-out: MIC 100%, ROB08706, Study ROC006
